From US20040242591A1, “Oxazolidinone derivatives as pontential antimicrobials” (priority 2001, published 2004)

Legend:
[1] = tested on: S.aureus ATCC 25923; test: MIC by agar incorporation method, S.aureus 25923; type: cell-based, Staphylococus aureus; set-up: unit not given here; details: Mueller Hinton agar, 10^4 CFU/spot, 18 hours
[2] = tested on: MRSA 15187; test: MIC by agar incorporation method, MRSA 15187; type: cell-based, Methicillin Resistant Staphylococcus aureus; set-up: unit not given here; details: Mueller Hinton agar, 10^4 CFU/spot, 24 hours
Text: 2) MRSA 15187—Methicillin Resistant Staphylococcus aureus

[3] = tested on: Strep. pne. ATCC 6303; test: MIC by agar incorporation method, S. pneum 6303; type: cell-based, Streptococcus pneumoniae; details: Mueller Hinton agar, 10^4 CFU/spot, 18 hours
Text: 5) Strep. pne. ATCC 6303—Streptococcus pneumoniae ATCC 6303

[4] = tested on: Strep.pyog. ATCC 19615; test: MIC by agar incorporation method, S.pyogenes 19615; type: cell-based, Streptococcus pyogenes; set-up: unit not given here; details: Mueller Hinton agar, 10^4 CFU/spot, 18 hours
Text: 6) Strep.pyog. ATCC 19615—Streptococcus pyogenes

[5] = tested on: Ent. faecalis ATCC 29212; test: MIC by agar incorporation method, E.faecalis 29212; type: cell-based, Enterococcus faecalis; set-up: unit not given here; details: Mueller Hinton agar, 10^4 CFU/spot, 18 hours
Text: 3) Ent. faecalis ATCC 29212—Enterococcus faecalis ATCC 29212

[6] = tested on: MRSA 33; test: MIC by agar incorporation method, MRSA 33; type: cell-based, Methicillin Resistant Staphylococcus aureus; set-up: unit not given here; details: Mueller Hinton agar, 10^4 CFU/spot, 24 hours
[7] = tested on: MRSA 562; test: MIC by agar incorporation method, MRSA 562; type: cell-based, Methicillin Resistant Staphylococcus aureus; set-up: unit not given here; details: Mueller Hinton agar, 10^4 CFU/spot, 24 hours
[8] = tested on: VRE 6A; test: MIC by agar incorporation method, VRE 6A; type: cell-based, Enterococcus faecium; set-up: unit not given here; details: Mueller Hinton agar, 10^4 CFU/spot, 18 hours
Text: 4) Ent. faecium […]—Enterococcus faecium 6A Van®, Cipro®

[9] = tested on: S. pneum AB 34; test: MIC by agar incorporation method, S. pneum AB 34; type: cell-based, Streptococcus pneumoniae; set-up: unit not given here; details: Mueller Hinton agar, 10^4 CFU/spot, 18 hours

SMILES: CC(=O)NC[C@H]1CN(c2ccc(N3CCN(Cc4cc(Br)c([N+](=O)[O-])o4)CC3)c(F)c2)C(=O)O1 [Compound No. 25, (S)-N-[[3-[3-Fluoro-4[N-1-[4-{2-Furyl-4-bromo-(nitro)methyl}]piperazinyl]-phenyl]-2-oxo-5-oxazolidinyl]methyl]acetamide]
- In Vitro (MIC) S.aureus 25923 [1]: 2
- In Vitro (MIC) MRSA 15187 [2]: 1
- In Vitro (MIC) S. pneum 6303 [3]: 2 µg/mL
- In Vitro (MIC) S.pyogenes 19615 [4]: 0.5
- In Vitro (MIC) E.faecalis 29212 [5]: 2
- In Vitro (MIC) MRSA 33 [6]: 2
- In Vitro (MIC) MRSA 562 [7]: 2
- In Vitro (MIC) VRE 6A [8]: 2
- In Vitro (MIC) S. pneum AB 34 [9]: 2

SMILES: CC(=O)NC[C@H]1CN(c2ccc(N3CCCC(=O)C3)c(F)c2)C(=O)O1 [Compound No. 96, (S)-N-[[3-{3-Fluoro-4-(3-oxo-piperidin-1-yl)-phenyl}-2-oxo-5-oxazolidinyl]methyl]acetamide]
- In Vitro (MIC) S.aureus 25923 [1]: 16
- In Vitro (MIC) MRSA 15187 [2]: 16
- In Vitro (MIC) S. pneum 6303 [3]: 4 µg/mL
- In Vitro (MIC) S.pyogenes 19615 [4]: 4
- In Vitro (MIC) E.faecalis 29212 [5]: 8
- In Vitro (MIC) MRSA 33 [6]: 16
- In Vitro (MIC) MRSA 562 [7]: 8
- In Vitro (MIC) VRE 6A [8]: 8
- In Vitro (MIC) S. pneum AB 34 [9]: 4

SMILES: CC(=O)NC[C@H]1CN(c2ccc(N3CCN(C(=O)c4cc(N(C)C)c([N+](=O)[O-])s4)CC3)c(F)c2)C(=O)O1 [Compound No. 38]
- In Vitro (MIC) S.aureus 25923 [1]: 8
- In Vitro (MIC) MRSA 15187 [2]: 4
- In Vitro (MIC) S. pneum 6303 [3]: 2 µg/mL
- In Vitro (MIC) S.pyogenes 19615 [4]: 2
- In Vitro (MIC) E.faecalis 29212 [5]: 4
- In Vitro (MIC) MRSA 33 [6]: 4
- In Vitro (MIC) MRSA 562 [7]: 4
- In Vitro (MIC) VRE 6A [8]: 4
- In Vitro (MIC) S. pneum AB 34 [9]: 2

SMILES: O=C(CCl)NC[C@H]1CN(c2ccc(N3CCN(Cc4ccc([N+](=O)[O-])s4)CC3)c(F)c2)C(=O)O1 [Compound No. 47, (S)-N-[[3-[3-Fluoro-4[N-1[4-[2-thiophenyl-(5-nitro)methyl}]piperazinyl]-phenyl]-2-oxo-5-oxazolidinyl]methyl]monochloroacetamide]
- In Vitro (MIC) S.aureus 25923 [1]: 4
- In Vitro (MIC) MRSA 15187 [2]: 4
- In Vitro (MIC) S. pneum 6303 [3]: 2 µg/mL
- In Vitro (MIC) S.pyogenes 19615 [4]: 1
- In Vitro (MIC) E.faecalis 29212 [5]: 4
- In Vitro (MIC) MRSA 33 [6]: 4
- In Vitro (MIC) MRSA 562 [7]: 4
- In Vitro (MIC) VRE 6A [8]: 4
- In Vitro (MIC) S. pneum AB 34 [9]: 4

SMILES: CC(=O)NC[C@H]1CN(c2ccc(N3CCC(N(C)C(=O)c4ccc([N+](=O)[O-])o4)C3)c(F)c2)C(=O)O1 (stereo partly drawn) [Compound No. 92]
- In Vitro (MIC) S.aureus 25923 [1]: 1
- In Vitro (MIC) MRSA 15187 [2]: 0.5
- In Vitro (MIC) S. pneum 6303 [3]: 1 µg/mL
- In Vitro (MIC) S.pyogenes 19615 [4]: 1
- In Vitro (MIC) E.faecalis 29212 [5]: <0.25
- In Vitro (MIC) MRSA 33 [6]: 0.5
- In Vitro (MIC) MRSA 562 [7]: <0.25
- In Vitro (MIC) VRE 6A [8]: <0.25
- In Vitro (MIC) S. pneum AB 34 [9]: 1
